Laboratory results: patent US20080182859A1 (Curis, Inc., priority 2006, published 2008)
Counter-ions that a name gives are not always drawn.

Experiments:
[1] = system: sonic hedgehog pathway; experiment: Hedgehog pathway Gli-luciferase reporter assay, TM3 cells; assay type: cell-based; conditions: TM3 mouse Leydig cells
Source text: (§1) Mouse (TM3: mouse Leydig cells; S12: mouse embryonic mesenchymal cells) and human (Daoy: human medulloblastoma cell; HepM: human embryonic palatal mesenchymal cell) cell lines are used to screen small molecules for their ability to modulate the activity of the sonic hedgehog pathway (Table 1, Table 2, and Table 3). Stable hedgehog pathway reporter cell lines are established by specific antibiotic selection following transfection of a reporter plasmid containing a luciferase gene located directly downstream from the gli promoter. Consequently, any observable changes in cellular luciferase activity may be attributed to changes in sonic hedgehog pathway activity in mouse and human cells, respectively, since gli is the major by-product of this pathway. To calculate activity, we generate an eleven point dose curve for each compound using 1:3 dilutions in 96 well assay plates. Each plate tested also contains low and high control to establish maximal pathway activation so to establish/compare a percentage activation of each tested compound (AMAX) on respective plates. Also we calculate EC50 values, or a concentration where the pathway will be exactly 50% activated, for each tested compound to determine potency. In these cell lines, compounds that register >20% AMAX values are considered active.
(§2) Stable hedgehog pathway reporter cell lines are established following specific antibiotic selection following transfection of a reporter plasmid In short, typically cells are plated in MicroTiter-plates at 10,000-20,000 cells per well, in growth media (containing 10%-20% FBS). After 48-72 hrs (HGL and DGL respectively) the media in the assay plates is switched to low-serum containing media (0.5% FBS). At that time compounds are added (at 1-5 μM) to the assay plates, in the presence or absence of hedgehog protein (octyl-modified version; 1-5 ng/ml). After another 24 hrs of incubation, the media from the assay plates is discarded and replaced with luciferase assay-mix. Subsequently, plates are incubated at RT for ˜15-30 mins and then read in a luminometer. [note: addition of the Hedgehog protein, although not critical, will sensitize the assay allowing the identification of weak actives].

[2] = system: sonic hedgehog pathway; experiment: Human hedgehog reporter assay Daoy-GliLuc (DGL); assay type: cell-based; conditions: Daoy human medulloblastoma cells, Gli-luciferase reporter; read-out: Daoy Avg. EC50
Source text: as §1, §2

Row | SMILES | EC50 [1] [nM] | EC50 [2] [nM]
1 | CN[C@H]1CC[C@@H](N(Cc2cc(-c3ccc(OC(F)(F)F)cc3)ccc2OC)C(=O)c2sc3ccccc3c2Cl)CC1 [Compound 307, 3-Chloro-benzo[b]thiophene-2-carboxylic acid (4-methoxy-4′-trifluoromethoxy-biphenyl-3-ylmethyl)-(4-methylamino-cyclohexyl)-amide hydrochloride] | < 50 | < 50
2 | CCOc1ccc(-c2ccc(C(F)(F)F)cc2)cc1CN(C(=O)c1sc2ccccc2c1Cl)[C@H]1CC[C@@H](NC)CC1 [Compound 309, 3-Chloro-benzo[b]thiophene-2-carboxylic acid (4-ethoxy-4′-trifluoromethyl-biphenyl-3-ylmethyl)-(4-methylamino-cyclohexyl)-amide hydrochloride] | 50 to 250 | < 50
3 | CCOc1ccc(-c2ccc(OC)cc2)cc1CN(C(=O)c1sc2ccccc2c1Cl)[C@H]1CC[C@@H](NC)CC1 [Compound 312, 3-Chloro-benzo[b]thiophene-2-carboxylic acid (4-ethoxy-4′-methoxy-biphenyl-3-ylmethyl)-(4-methylamino-cyclohexyl)-amide hydrochloride] |  | 50 to 250
4 | CCOc1ccc(-c2ccccc2)cc1CN(C(=O)c1sc2ccccc2c1Cl)[C@H]1CC[C@@H](NC)CC1 [Compound 313, 3-Chloro-benzo[b]thiophene-2-carboxylic acid (4-ethoxy-biphenyl-3-ylmethyl)-(4-methylamino-cyclohexyl)-amide hydrochloride] | 50 to 250 | < 50
5 | CN[C@H]1CC[C@@H](N(Cc2cc(-c3cnc(N(C)C)nc3)ccc2OC)C(=O)c2sc3ccccc3c2Cl)CC1 [Compound 321, 3-Chloro-benzo[b]thiophene-2-carboxylic acid [5-(2-dimethylamino-pyrimidin-5-yl)-2-methoxy-benzyl]-(4-methylamino-cyclohexyl)-amide dihydrochloride] | 1000 to 2500 | 50 to 250
6 | CCOc1ccc(-c2cnc(N(C)C)nc2)cc1CN(C(=O)c1sc2ccccc2c1Cl)[C@H]1CC[C@H](NC)CC1 [Compound 401, 3-Chloro-benzo[b]thiophene-2-carboxylic acid [5-(2-dimethylamino-pyrimidin-5-yl)-2-ethoxy-benzyl]-(4-methylamino-cyclohexyl)-amide dihydrochloride] | 1000 to 2500 | 
7 | CN[C@H]1CC[C@H](N(Cc2cc(-c3ccc(Cl)cc3)ccc2F)C(=O)c2sc3ccccc3c2Cl)CC1 [Compound 428, 3-Chloro-benzo[b]thiophene-2-carboxylic acid (4′-chloro-4-fluoro-biphenyl-3-ylmethyl)-(4-methylamino-cyclohexyl)-amide trifluoroacetate] | 250 to 1000 | 
8 | CN[C@H]1CC[C@H](N(Cc2cc(-c3ccc(NC(C)=O)cc3)ccc2F)C(=O)c2sc3ccccc3c2Cl)CC1 [Compound 429, 3-Chloro-benzo[b]thiophene-2-carboxylic acid (4′-acetylamino-4-fluoro-biphenyl-3-ylmethyl)-(4-methylamino-cyclohexyl)-amide trifluoroacetate] | 1000 to 2500 | 
9 | CN[C@H]1CC[C@H](N(Cc2cc(-c3ccc(N(C)C(C)=O)cc3)ccc2F)C(=O)c2sc3ccccc3c2Cl)CC1 [Compound 430, 3-Chloro-benzo[b]thiophene-2-carboxylic acid [4′-(acetyl-methyl-amino)-4-fluoro-biphenyl-3-ylmethyl]-(4-methylamino-cyclohexyl)-amide trifluoroacetate] | 1000 to 2500 | 
10 | CNc1ccc(-c2ccc(F)c(CN(C(=O)c3sc4ccccc4c3Cl)[C@H]3CC[C@H](NC)CC3)c2)cc1 [Compound 432, 3-Chloro-benzo[b]thiophene-2-carboxylic acid (4-fluoro-4′-methylamino-biphenyl-3-ylmethyl)-(4-methylamino-cyclohexyl)-amide dihydrochloride] | 250 to 1000 | 

The next lines start with the values.

Row | EC50 [1] [nM] | EC50 [2] [nM] | SMILES
11 | 50 to 250 | < 50 | CN[C@H]1CC[C@@H](N(Cc2cc(-c3ccc(C(F)(F)F)cc3)ccc2OC)C(=O)c2sc3ccccc3c2Cl)CC1 [Compound 306, 3-Chloro-benzo[b]thiophene-2-carboxylic acid (4-methoxy-4′-trifluoromethyl-biphenyl-3-ylmethyl)-(4-methylamino-cyclohexyl)-amide trifluoroacetate]
12 | < 50 | < 50 | CN[C@H]1CC[C@@H](N(Cc2cc(-c3ccc(Cl)cc3)ccc2OC)C(=O)c2sc3ccccc3c2Cl)CC1 [Compound 308, 3-Chloro-benzo[b]thiophene-2-carboxylic acid (4′-chloro-4-methoxy-biphenyl-3-ylmethyl)-(4-methylamino-cyclohexyl)-amide hydrochloride]
13 | < 50 | < 50 | CN[C@H]1CC[C@@H](N(Cc2cc(-c3ccc(F)cc3)ccc2OC)C(=O)c2sc3ccccc3c2Cl)CC1 [Compound 314, 3-Chloro-benzo[b]thiophene-2-carboxylic acid (4′-fluoro-4-methoxy-biphenyl-3-ylmethyl)-(4-methylamino-cyclohexyl)-amide hydrochloride]
14 | 250 to 1000 | 50 to 250 | CNc1ncc(-c2ccc(OC)c(CN(C(=O)c3sc4ccccc4c3Cl)[C@H]3CC[C@@H](NC)CC3)c2)cn1 [Compound 322, 3-Chloro-benzo[b]thiophene-2-carboxylic acid [2-methoxy-5-(2-methylamino-pyrimidin-5-yl)-benzyl]-(4-methylamino-cyclohexyl)-amide dihydrochloride]
15 | < 50 |  | CN[C@H]1CC[C@H](N(Cc2cc(-c3ccnc(C(C)=O)c3)ccc2OC)C(=O)c2sc3c(F)ccc(F)c3c2Cl)CC1 [Compound 407, 3-Chloro-4,7-difluoro-benzo[b]thiophene-2-carboxylic acid [5-(2-acetyl-pyridin-4-yl)-2-methoxy-benzyl]-(4-methylamino-cyclohexyl)-amide dihydrochloride]
16 | 250 to 1000 |  | CN[C@H]1CC[C@H](N(Cc2cc(-c3ccc(OC)cc3)ccc2F)C(=O)c2sc3ccccc3c2Cl)CC1 [Compound 421, 3-Chloro-benzo[b]thiophene-2-carboxylic acid (4-fluoro-4′-methoxy-biphenyl-3-ylmethyl)-(4-methylamino-cyclohexyl)-amide trifluoroacetate]
17 | 250 to 1000 |  | CN[C@H]1CC[C@H](N(Cc2cc(-c3ccc(C(F)(F)F)cc3)ccc2F)C(=O)c2sc3ccccc3c2Cl)CC1 [Compound 422, 3-Chloro-benzo[b]thiophene-2-carboxylic acid (4-fluoro-4′-trifluoromethyl-biphenyl-3-ylmethyl)-(4-methylamino-cyclohexyl)-amide trifluoroacetate]
18 | 250 to 1000 |  | CN[C@H]1CC[C@H](N(Cc2cc(-c3ccc(C)cc3)ccc2F)C(=O)c2sc3ccccc3c2Cl)CC1 [Compound 427, 3-Chloro-benzo[b]thiophene-2-carboxylic acid (4-fluoro-4′-methyl-biphenyl-3-ylmethyl)-(4-methylamino-cyclohexyl)-amide trifluoroacetate]
19 | 50 to 250 |  | CN[C@H]1CC[C@H](N(Cc2cc(-c3ccc(NC=O)cc3)ccc2F)C(=O)c2sc3ccccc3c2Cl)CC1 [Compound 431, 3-Chloro-benzo[b]thiophene-2-carboxylic acid (4-fluoro-4′-formylamino-biphenyl-3-ylmethyl)-(4-methylamino-cyclohexyl)-amide trifluoroacetate]
